Here are results for 24 molecules from patent US10758534B2 (Vertex Pharmaceuticals Incorporated, priority 2014, dated 2020).

T1 sequence (P13569 with tags, fused parts or gaps DEL508-508): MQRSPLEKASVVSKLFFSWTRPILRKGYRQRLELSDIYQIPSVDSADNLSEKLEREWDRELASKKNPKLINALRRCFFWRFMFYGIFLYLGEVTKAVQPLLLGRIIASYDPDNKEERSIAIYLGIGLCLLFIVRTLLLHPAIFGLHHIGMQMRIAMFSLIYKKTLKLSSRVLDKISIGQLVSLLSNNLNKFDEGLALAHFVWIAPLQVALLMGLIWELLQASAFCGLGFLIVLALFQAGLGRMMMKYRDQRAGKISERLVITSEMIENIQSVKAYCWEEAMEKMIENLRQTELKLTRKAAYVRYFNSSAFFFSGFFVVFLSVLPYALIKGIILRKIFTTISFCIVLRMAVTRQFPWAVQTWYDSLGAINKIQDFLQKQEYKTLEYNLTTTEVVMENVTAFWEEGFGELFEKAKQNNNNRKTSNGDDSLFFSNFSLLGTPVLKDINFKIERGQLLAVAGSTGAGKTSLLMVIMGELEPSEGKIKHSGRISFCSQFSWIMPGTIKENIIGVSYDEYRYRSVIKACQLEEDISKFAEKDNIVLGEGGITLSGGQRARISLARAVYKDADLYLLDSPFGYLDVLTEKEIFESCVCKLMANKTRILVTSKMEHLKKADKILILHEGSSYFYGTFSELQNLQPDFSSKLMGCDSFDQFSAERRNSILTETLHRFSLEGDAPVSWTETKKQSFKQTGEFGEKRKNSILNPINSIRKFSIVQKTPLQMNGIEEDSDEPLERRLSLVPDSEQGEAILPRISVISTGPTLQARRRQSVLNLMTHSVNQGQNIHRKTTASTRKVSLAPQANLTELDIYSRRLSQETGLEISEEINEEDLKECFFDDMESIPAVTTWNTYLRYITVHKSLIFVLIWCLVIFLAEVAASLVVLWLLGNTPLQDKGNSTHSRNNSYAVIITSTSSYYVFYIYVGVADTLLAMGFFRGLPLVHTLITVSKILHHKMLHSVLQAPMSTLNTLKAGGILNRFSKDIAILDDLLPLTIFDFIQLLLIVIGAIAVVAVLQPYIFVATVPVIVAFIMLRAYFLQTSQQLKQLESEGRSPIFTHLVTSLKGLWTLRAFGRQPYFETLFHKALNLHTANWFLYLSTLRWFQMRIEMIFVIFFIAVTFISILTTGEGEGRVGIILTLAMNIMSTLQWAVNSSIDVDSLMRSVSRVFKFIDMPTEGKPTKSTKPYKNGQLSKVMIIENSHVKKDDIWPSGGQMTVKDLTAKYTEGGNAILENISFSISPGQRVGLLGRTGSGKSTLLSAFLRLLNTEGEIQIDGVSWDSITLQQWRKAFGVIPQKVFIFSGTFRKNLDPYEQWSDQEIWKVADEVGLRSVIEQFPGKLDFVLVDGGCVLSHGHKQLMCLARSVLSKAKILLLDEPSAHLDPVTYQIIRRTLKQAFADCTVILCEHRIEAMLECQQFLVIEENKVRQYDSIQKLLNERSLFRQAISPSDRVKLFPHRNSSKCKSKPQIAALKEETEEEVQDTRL

The first assay addresses T1, F508del (Homo sapiens, UniProt P13569, DEL508-508).
T1 construct: expressed in transfected cells
The assay is described as follows: Protocol 2: FRET membrane potential optical assay (VIPR), identification of correction compounds. Format: cell-based. The note with it: F508del CFTR modulator activity; compounds of Table 1; read-out: EC30. The source says:
Membrane potential optical methods for assaying F508del modulation properties of compounds.
These voltage sensitive assays are based on the change in fluorescence resonant energy transfer (FRET) between the membrane-soluble, voltage-sensitive dye, DiSBAC2(3), and a fluorescent phospholipid, CC2-DMPE, which is attached to the outer leaflet of the plasma membrane and acts as a FRET donor. Changes in membrane potential (Vm) cause the negatively charged DiSBAC2(3) to redistribute across the plasma membrane and the amount of energy transfer from CC2-DMPE changes accordingly. The changes in fluorescence emission were monitored using VIPR™ II, which is an integrated liquid handler and fluorescent detector designed to conduct cell-based screens in 96- or 384-well microtiter plates.
To identify small molecules that correct the trafficking defect associated with F508del; a single-addition HTS assay format was developed. The cells were incubated in serum-free medium for 16 hrs at 37° C. in the presence or absence (negative control) of test compound. As a positive control, cells plated in 384-well plates were incubated for 16 hrs at 27° C. to “temperature-correct” F508del. The cells were subsequently rinsed 3× with Krebs Ringers solution and loaded with the voltage-sensitive dyes. To activate F508del, 10 μM forskolin and the CFTR potentiator, genistein (20 μM), were added along with Cl^−-free medium to each well. The addition of Cl^−-free medium promoted Cl^− efflux in response to F508del activation and the resulting membrane depolarization was optically monitored using the FRET-based voltage-sensor dyes.
• Bath Solution #1: (in mM) NaCl 160, KCl 4.5, CaCl2 2, MgCl2 1, HEPES 10, pH 7.4 with NaOH. • Chloride-free bath solution: Chloride salts in Bath Solution #1 (above) are substituted with gluconate salts. • CC2-DMPE: Prepared as a 10 mM stock solution in DMSO and stored at −20° C. • DiSBAC2(3): Prepared as a 10 mM stock in DMSO and stored at −20° C. Cell Culture
NIH3T3 mouse fibroblasts stably expressing F508del are used for optical measurements of membrane potential. The cells are maintained at 37° C. in 5% CO2 and 90% humidity in Dulbecco's modified Eagle's medium supplemented with 2 mM glutamine, 10% fetal bovine serum, 1×NEAA, β-ME, 1× pen/strep, and 25 mM HEPES in 175 cm^2 culture flasks. For all optical assays, the cells were seeded at 30,000/well in 384-well matrigel-coated plates and cultured for 2 hrs at 37° C. before culturing at 27° C. for 24 hrs for the potentiator assay. For the correction assays, the cells are cultured at 27° C. or 37° C. with and without compounds for 16-24 hours.
Regarding `Cc1ccc(F)c(-c2ccc(C(=O)NS(=O)(=O)c3cccnc3N)c(N3C[C@@H](C)CC3(C)C)n2)c1` [Compound 2205, N-[(2-amino-3-pyridyl)sulfonyl]-6-(2-fluoro-5-methyl-phenyl)-2-[(4S)-2,2,4-trimethylpyrrolidin-1-yl]pyridine-3-carboxamide], the EC30 – broadly, the concentration at which the effect reaches the 30% level – was less than 3 µM.

Regarding `C[C@@H]1CN(c2nc(N3CCOC(C)(C)C3)c(F)cc2C(=O)NS(=O)(=O)c2cccc(N)n2)C(C)(C)C1` [Compound 2586, N-[(6-amino-2-pyridyl)sulfonyl]-6-(2,2-dimethylmorpholin-4-yl)-5-fluoro-2-[(4S)-2,2,4-trimethylpyrrolidin-1-yl]pyridine-3-carboxamide], the concentration for an effect of 30% (EC30) fell in the range of 3 to 10 µM.

Turning to `C[C@@H]1CN(c2nc(-c3ccc(Cl)cc3)ccc2C(=O)NS(=O)(=O)c2ccc[nH]c2=O)C(C)(C)C1` [Compound 2028, 6-(4-chlorophenyl)-N-[(2-oxo-1H-pyridin-3-yl)sulfonyl]-2-[(4S)-2,2,4-trimethylpyrrolidin-1-yl]pyridine-3-carboxamide], the EC30 was less than 3 µM.

Turning to `CC1CN(c2ncc(-c3cc(F)cc(F)c3)cc2C(=O)NS(=O)(=O)c2cccc(N)n2)C(C)(C)C1` (stereo not drawn) [Compound 2259, N-[(6-amino-2-pyridyl)sulfonyl]-5-(3,5-difluorophenyl)-2-(2,2,4-trimethylpyrrolidin-1-yl)pyridine-3-carboxamide], the EC30 is less than 3 µM.

As to `Cc1ccc(-c2nc(-c3cc(F)cc(OCC(C)C)c3)ccc2C(=O)NS(=O)(=O)N2CC[C@@H](N)C2)cc1` [Compound 2276, N-[(3R)-3-aminopyrrolidin-1-yl]sulfonyl-6-(3-fluoro-5-isobutoxy-phenyl)-2-(p-tolyl)pyridine-3-carboxamide], the 30% effect concentration (EC30) is less than 3 µM.

For the molecule `C[C@@H]1CN(c2nc(-c3cc4ccccc4n3C(=O)OC(C)(C)C)ccc2C(=O)NS(=O)(=O)c2cccnc2N)C(C)(C)C1` [Compound 2657, tert-butyl 2-[5-[(2-amino-3-pyridyl)sulfonylcarbamoyl]-6-[(4S)-2,2,4-trimethylpyrrolidin-1-yl]-2-pyridyl]indole-1-carboxylate], the EC30 was in the range of 3 to 10 µM.

On to `C[C@@H]1CN(c2nc(-c3cc(F)ccc3O)ccc2C(=O)NS(=O)(=O)c2ccc[nH]c2=O)C(C)(C)C1` [Compound 2295, 6-(5-fluoro-2-hydroxy-phenyl)-N-[(2-oxo-1H-pyridin-3-yl)sulfonyl]-2-[(4S)-2,2,4-trimethylpyrrolidin-1-yl]pyridine-3-carboxamide], for which the EC30 fell in the range of 3 to 10 µM.

With `C[C@@H]1CN(c2nc(OC3CCCC3)c(F)cc2C(=O)NS(=O)(=O)c2cccc(N)n2)C(C)(C)C1` [Compound 2100, N-[(6-amino-2-pyridyl)sulfonyl]-6-(cyclopentoxy)-5-fluoro-2-[(4S)-2,2,4-trimethylpyrrolidin-1-yl]pyridine-3-carboxamide], the 30% effect concentration (EC30) was less than 3 µM.

For `CC1CN(c2ncccc2C(=O)NS(=O)(=O)c2cccc(N(C)Cc3cccc(Cl)c3)n2)C(C)(C)C1` (stereo not drawn) [Compound 2378, N—[[6-[(3-chlorophenyl)methyl-methyl-amino]-2-pyridyl]sulfonyl]-2-(2,2,4-trimethylpyrrolidin-1-yl)pyridine-3-carboxamide], the EC30 was less than 3 µM.

On to `CC1CN(c2ncccc2C(=O)NS(=O)(=O)c2cccc(OCc3ccc(C(F)(F)F)cc3)n2)C(C)(C)C1` (stereo not drawn) [Compound 2618, N—[[6-[[4-(trifluoromethyl)phenyl]methoxy]-2-pyridyl]sulfonyl]-2-(2,2,4-trimethylpyrrolidin-1-yl)pyridine-3-carboxamide], for which the concentration for an effect of 30% (EC30) is less than 3 µM.

With `Cc1ccc(-c2ccc(C(=O)NS(=O)(=O)c3ccc[nH]c3=O)c(N3C[C@@H](C)CC3(C)C)n2)cc1F` [Compound 2084, 6-(3-fluoro-4-methyl-phenyl)-N-[(2-oxo-1H-pyridin-3-yl)sulfonyl]-2-[(4S)-2,2,4-trimethylpyrrolidin-1-yl]pyridine-3-carboxamide], the EC30 is less than 3 µM.

In the case of `COc1cccc(Oc2cccc(S(=O)(=O)NC(=O)c3cccnc3N3CC(C)CC3(C)C)n2)c1OC` (stereo not drawn) [Compound 2233, N—[[6-(2,3-dimethoxyphenoxy)-2-pyridyl]sulfonyl]-2-(2,2,4-trimethylpyrrolidin-1-yl)pyridine-3-carboxamide], the EC30 is less than 3 µM.

Still in this assay, the particulars now being: Table 3; compounds of Table 1 as modulators of CFTR activity; protocol not stated.
In the case of `CCN(CC)c1ccc(-c2cc(C(=O)NS(=O)(=O)c3ccccc3)n(Cc3c(C)cccc3C)n2)cc1` [Compound 162, N-(benzenesulfonyl)-5-[4-(diethylamino)phenyl]-2-[(2,6-dimethylphenyl)methyl]pyrazole-3-carboxamide], the EC30 result is reported as “+++ (“+++” means <3 uM)”.

Take `Cc1cc(C)c(Cn2c(C(=O)NS(=O)(=O)c3ccncc3)cc3c(Cl)cccc32)c(C)c1` [Compound 82, 4-chloro-N-(4-pyridylsulfonyl)-1-[(2,4,6-trimethylphenyl)methyl]indole-2-carboxamide]: the EC30 result is “+++ (“+++” means <3 uM)”.

For the molecule `CC(C)(C)c1cc(C(=O)NS(=O)(=O)c2ccccc2)n(Cc2c(Cl)cc(Cl)cc2Cl)n1` [Compound 145, N-(benzenesulfonyl)-5-tert-butyl-2-[(2,4,6-trichlorophenyl)methyl]pyrazole-3-carboxamide], the EC30 entry is given as “+++ (“+++” means <3 uM)”.

For `Cc1cccc(C)c1Cn1nc(C(C)(C)C)cc1C(=O)NS(=O)(=O)c1cccc2[nH]ncc12` [Compound 86, 5-tert-butyl-2-[(2,6-dimethylphenyl)methyl]-N-(1H-indazol-4-ylsulfonyl)pyrazole-3-carboxamide], the EC30 result is “++ (“++” means between 3 uM and 10 uM)”.

Consider `Cc1cc(C)c(Oc2nc(-n3cc(C(F)(F)F)cn3)ccc2C(=O)NS(=O)(=O)c2cccc(N)n2)c(C)c1` [Compound 691, N-[(6-amino-2-pyridyl)sulfonyl]-6-[4-(trifluoromethyl)pyrazol-1-yl]-2-(2,4,6-trimethylphenoxy)pyridine-3-carboxamide], for which the EC30 result was “+++ (“+++” means <3 uM)”.

`COc1cccc(Oc2nc(C(C)(C)C)ccc2C(=O)NS(=O)(=O)c2ccccc2)c1` [Compound 101, N-(benzenesulfonyl)-6-tert-butyl-2-(3-methoxyphenoxy)pyridine-3-carboxamide]: the EC30 entry is reported as “+++ (“+++” means <3 uM)”.

On to `Cc1ccc(Oc2nc(C(C)(C)C)ccc2C(=O)NS(=O)(=O)c2cccc(N)c2)c(C)c1` [Compound 251, N-(3-aminophenyl)sulfonyl-6-tert-butyl-2-(2,4-dimethylphenoxy)pyridine-3-carboxamide], for which the concentration for an effect of 30% (EC30) entry is given as “+++ (“+++” means <3 uM)”.

As to `Cc1cc(C)c(Oc2nc(-c3ccc(C(=O)NC(C)C)c(F)c3)ccc2C(=O)NS(=O)(=O)c2cccc(N)n2)c(C)c1` [Compound 543, N-[(6-amino-2-pyridyl)sulfonyl]-6-[3-fluoro-4-(isopropylcarbamoyl)phenyl]-2-(2,4,6-trimethylphenoxy)pyridine-3-carboxamide], the EC30 entry was “++ (“++” means between 3 uM and 10 uM)”.

For the molecule `CC(C)COc1cc(F)cc(-c2ccc(C(=O)NS(=O)(=O)c3cccc(N)n3)c(N3CCC[C@@H]3C(F)(F)F)n2)c1` [Compound 398, N-[(6-amino-2-pyridyl)sulfonyl]-6-(3-fluoro-5-isobutoxy-phenyl)-2-[(2R)-2-(trifluoromethyl)pyrrolidin-1-yl]pyridine-3-carboxamide], the EC30 result was “+++ (“+++” means <3 uM)”.

As to `Cc1cc(C)c(Cn2c(C(=O)NS(=O)(=O)c3ccccc3)cc3c(F)cccc32)c(C)c1` [Compound 87, N-(benzenesulfonyl)-4-fluoro-1-[(2,4,6-trimethylphenyl)methyl]indole-2-carboxamide], the 30% effect concentration (EC30) entry is given as “+++ (“+++” means <3 uM)”.

Regarding `Cc1cc(C)c(Cn2c(C(=O)NS(=O)(=O)c3cccc(N)c3)cc3c(C#N)cccc32)c(C)c1` [Compound 306, N-(3-aminophenyl)sulfonyl-4-cyano-1-[(2,4,6-trimethylphenyl)methyl]indole-2-carboxamide], the 30% effect concentration (EC30) result is “+++ (“+++” means <3 uM)”.

For the molecule `CCOc1ccc(-c2cc(C(=O)NS(=O)(=O)c3ccccc3)n(Cc3c(C)cccc3C)n2)cc1` [Compound 29, N-(benzenesulfonyl)-2-[(2,6-dimethylphenyl)methyl]-5-(4-ethoxyphenyl)pyrazole-3-carboxamide], the 30% effect concentration (EC30) entry is reported as “+++ (“+++” means <3 uM)”.
